{
  "source": "patent US10982284B2",
  "about": "“Compositions and methods APC, CREB, and BAD pathways to assess and affect cancer” (H. Lee Moffitt Cancer Center and Research Institute, Inc., priority 2011, dated 2021)",
  "assay_in_all_cases": "CellTiter-Blue cell viability assay",
  "assay_type_in_all_cases": "cell-based, human",
  "key": {"BG1": {"system": "BG1", "settings": "BG1 ovarian cancer cell line; 72 hours; 50% reduction in growth/viability", "description": "(§1) Ovarian cancer cell lines were obtained from the American Type Culture Collection (Manassas, Va.) (CAOV3, OV90, OVCAR3, SKOV3, TO[…]); from the European Collection of Cell Cultures, Salisbury, UK (A2780CP, A2780S); or from Kyoto University, Kyoto, Japan ([…], Tyknu, and TyknuC is R) or were kind gifts from Dr. Patricia Kruk, Department of Pathology, College of Medicine, University of South Florida, Tampa, Fla., and Susan Murphy, PhD, Dept of OBGYN/Division of GYN Oncology, Duke University, Durham, N.C. […] Cell lines were maintained in RPMI-1640 (Invitrogen, Carlsbad, Calif.) supplemented with 10% fetal bovine serum (Fisher Scientific, Pittsburgh, Pa.), 1% sodium pyruvate, 1% penicillin/streptomycin (Cellgro, Manassas, Va.), and 1% nonessential amino acids (HyClone, Hudson, N.H.). Mycoplasma testing was performed every 6 months following manufacturer's protocol (Lonza, Rockland, Me.). Drug activity was evaluated using a high-throughput CellTiter-Blue cell viability assay. […] After cell adherence, increasing concentrations of cisplatin, carboplatin (Sigma-Aldrich, St. Louis, Mo.), paclitaxel (Sequoia Research Products Ltd., Pangbourne, UK), or carboplatin plus paclitaxel (carbotaxol: constant molar ratio of carboplatin to paclitaxel of 20,000:1) were added to appropriate wells using an automated pipetting station. Four replicate wells were used for each drug concentration and vehicle controls. […] The cells were incubated with the drug for 72 hours, and 5 μL of CellTiter-Blue reagent (Promega Corp) was added to each well. Fluorescence was read at […] using a Synergy 4 microplate reader (Bio-Tek Instruments, Inc., Winooski, Vt.)."}, "OVCAR8": {"system": "OVCAR8", "settings": "OVCAR8 ovarian cancer cell line; 72 hours; 50% reduction in growth/viability", "description": "as §1"}, "Ovary1847": {"system": "Ovary1847", "settings": "Ovary1847 ovarian cancer cell line; 72 hours; 50% reduction in growth/viability", "description": "as §1"}, "CAOV3": {"system": "CAOV3", "settings": "CAOV3 ovarian cancer cell line; 72 hours; 50% reduction in growth/viability", "description": "as §1"}, "IMCC5": {"system": "IMCC5", "settings": "IMCC5 ovarian cancer cell line; 72 hours; 50% reduction in growth/viability", "description": "as §1"}, "OVCAR2": {"system": "OVCAR2", "settings": "OVCAR2 ovarian cancer cell line; 72 hours; 50% reduction in growth/viability", "description": "as §1"}, "SK-OV-4": {"system": "SK-OV-4", "settings": "SK-OV-4 ovarian cancer cell line; 72 hours; 50% reduction in growth/viability", "description": "as §1"}, "IMCC3": {"system": "IMCC3", "settings": "IMCC3 ovarian cancer cell line; 72 hours; 50% reduction in growth/viability", "description": "as §1"}, "OVCAR5": {"system": "OVCAR5", "settings": "OVCAR5 ovarian cancer cell line; 72 hours; 50% reduction in growth/viability", "description": "as §1"}, "OVCA432": {"system": "OVCA432", "settings": "OVCA432 ovarian cancer cell line; 72 hours; 50% reduction in growth/viability", "description": "as §1"}, "OVCA420": {"system": "OVCA420", "settings": "OVCA420 ovarian cancer cell line; 72 hours; 50% reduction in growth/viability", "description": "as §1"}, "OVCAR10": {"system": "OVCAR10", "settings": "OVCAR10 ovarian cancer cell line; 72 hours; 50% reduction in growth/viability", "description": "as §1"}, "OVCA429": {"system": "OVCA429", "settings": "OVCA429 ovarian cancer cell line; 72 hours; 50% reduction in growth/viability", "description": "as §1"}, "CHIcisR": {"system": "CHIcisR", "settings": "CHIcisR ovarian cancer cell line; 72 hours; 50% reduction in growth/viability", "description": "as §1"}, "A2780S": {"system": "A2780S", "settings": "A2780S ovarian cancer cell line; 72 hours; 50% reduction in growth/viability", "description": "as §1"}, "OVCAR3": {"system": "OVCAR3", "settings": "OVCAR3 ovarian cancer cell line; 72 hours; 50% reduction in growth/viability", "description": "as §1"}, "IGR-OV1": {"system": "IGR-OV1", "settings": "IGR-OV1 ovarian cancer cell line; 72 hours; 50% reduction in growth/viability", "description": "as §1"}, "CAOV2": {"system": "CAOV2", "settings": "CAOV2 ovarian cancer cell line; 72 hours; 50% reduction in growth/viability", "description": "as §1"}, "HeyA8": {"system": "HeyA8", "settings": "HeyA8 ovarian cancer cell line; 72 hours; 50% reduction in growth/viability", "description": "as §1"}, "Tyknu": {"system": "Tyknu", "settings": "Tyknu ovarian cancer cell line; 72 hours; 50% reduction in growth/viability", "description": "as §1"}, "OVCAR4": {"system": "OVCAR4", "settings": "OVCAR4 ovarian cancer cell line; 72 hours; 50% reduction in growth/viability", "description": "as §1"}, "OVCA433": {"system": "OVCA433", "settings": "OVCA433 ovarian cancer cell line; 72 hours; 50% reduction in growth/viability", "description": "as §1"}, "A2780CP": {"system": "A2780CP", "settings": "A2780CP ovarian cancer cell line; 72 hours; 50% reduction in growth/viability", "description": "as §1"}, "A2008": {"system": "A2008", "settings": "A2008 ovarian cancer cell line; 72 hours; 50% reduction in growth/viability", "description": "as §1"}, "Dov13": {"system": "Dov13", "settings": "Dov13 ovarian cancer cell line; 72 hours; 50% reduction in growth/viability", "description": "as §1"}, "OV2008": {"system": "OV2008", "settings": "OV2008 ovarian cancer cell line; 72 hours; 50% reduction in growth/viability", "description": "as §1"}, "M41CSR": {"system": "M41CSR", "settings": "M41CSR ovarian cancer cell line; 72 hours; 50% reduction in growth/viability", "description": "as §1"}, "TyknuCisR": {"system": "TyknuCisR", "settings": "TyknuCisR ovarian cancer cell line; 72 hours; 50% reduction in growth/viability", "description": "as §1"}, "MCAS": {"system": "MCAS", "settings": "MCAS ovarian cancer cell line; 72 hours; 50% reduction in growth/viability", "description": "as §1"}, "M41": {"system": "M41", "settings": "M41 ovarian cancer cell line; 72 hours; 50% reduction in growth/viability", "description": "as §1"}, "CHI": {"system": "CHI", "settings": "CHI ovarian cancer cell line; 72 hours; 50% reduction in growth/viability", "description": "as §1"}, "C13": {"system": "C13", "settings": "C13 ovarian cancer cell line; 72 hours; 50% reduction in growth/viability", "description": "as §1"}},
  "data": [
    {"smiles": "N.N.[Cl][Pt][Cl]", "note": "[Cisplatin, cisplatin]", "values": [
      {"measurement": "IC50", "setting": "BG1", "value": 36.4, "unit": "µM"},
      {"measurement": "IC50", "setting": "OVCAR8", "value": 75.3, "unit": "µM"},
      {"measurement": "IC50", "setting": "Ovary1847", "value": 8.7, "unit": "µM"},
      {"measurement": "IC50", "setting": "CAOV3", "value": 34.4, "unit": "µM"},
      {"measurement": "IC50", "setting": "IMCC5", "value": 4.9, "unit": "µM"},
      {"measurement": "IC50", "setting": "OVCAR2", "value": 3.7, "unit": "µM"},
      {"measurement": "IC50", "setting": "SK-OV-4", "value": 13, "unit": "µM"},
      {"measurement": "IC50", "setting": "IMCC3", "value": 22, "unit": "µM"},
      {"measurement": "IC50", "setting": "OVCAR5", "value": 12.9, "unit": "µM"},
      {"measurement": "IC50", "setting": "OVCA432", "value": 1.4, "unit": "µM"},
      {"measurement": "IC50", "setting": "OVCA420", "value": 13.7, "unit": "µM"},
      {"measurement": "IC50", "setting": "OVCAR10", "value": 32.5, "unit": "µM"},
      {"measurement": "IC50", "setting": "OVCA429", "value": 5.8, "unit": "µM"},
      {"measurement": "IC50", "setting": "CHIcisR", "value": 1.3, "unit": "µM"},
      {"measurement": "IC50", "setting": "A2780S", "value": 4.7, "unit": "µM"},
      {"measurement": "IC50", "setting": "OVCAR3", "value": 1.3, "unit": "µM"},
      {"measurement": "IC50", "setting": "IGR-OV1", "value": 1.4, "unit": "µM"},
      {"measurement": "IC50", "setting": "CAOV2", "value": 4.5, "unit": "µM"},
      {"measurement": "IC50", "setting": "HeyA8", "value": 33.1, "unit": "µM"},
      {"measurement": "IC50", "setting": "Tyknu", "value": 4.8, "unit": "µM"},
      {"measurement": "IC50", "setting": "OVCAR4", "value": 20.5, "unit": "µM"},
      {"measurement": "IC50", "setting": "OVCA433", "value": 8.8, "unit": "µM"},
      {"measurement": "IC50", "setting": "A2780CP", "value": 43.8, "unit": "µM"},
      {"measurement": "IC50", "setting": "A2008", "value": 1.5, "unit": "µM"},
      {"measurement": "IC50", "setting": "Dov13", "value": 24.6, "unit": "µM"},
      {"measurement": "IC50", "setting": "OV2008", "value": 3.5, "unit": "µM"},
      {"measurement": "IC50", "setting": "M41CSR", "value": 13.5, "unit": "µM"},
      {"measurement": "IC50", "setting": "TyknuCisR", "value": 17.7, "unit": "µM"},
      {"measurement": "IC50", "setting": "MCAS", "value": 61.3, "unit": "µM"},
      {"measurement": "IC50", "setting": "M41", "value": 12.8, "unit": "µM"},
      {"measurement": "IC50", "setting": "CHI", "value": 4.9, "unit": "µM"},
      {"measurement": "IC50", "setting": "C13", "value": 17.9, "unit": "µM"}
    ]}
  ]
}
